Test results taken from patent publication EP0011821A2, “Antiseborrhoeic hair treatment composition” (Henkel Kommanditgesellschaft auf Aktien, priority 1978, dated 1980).

System: Meerschweinchen
Experiment: Test for anti-dandruff effect on oleic-acid-treated back skin of shorn guinea pigs (skin fold thickness and visual scaling score)
Assay type: in vivo
Settings: 5 % test substance with 5 % Ölsäure in 70 %igem Ethanol, topical on the back, 60 min exposure on 4 consecutive days, relative to skin treated with 5 % Ölsäure in 70 % Ethanol only, significant (+, 95 %)
Excerpt: Die Prüfung auf Antischuppenwirkung wurde in folgender Weise durchgeführt:
Die Prüfsubstanz wurde in 5 % iger Konzentration zusammen mit 5 % Ölsäure in 70 %igem Ethanol gelöst und in alternierender Reihenfolge und in rotierendem Schema auf den Rücken junger, geschorener weiblicher Meerschweinchen im Gewicht von 600 ± 50 g aufgetragen. Die Einwirkungszeit der Substanz wurde dabei auf 60 Minuten begrenzt, da diese Zeit ausreichte, um eine Wirkung zu erzielen. Anschließend wurden die Tiere mit warmem Wasser 30 Sekunden lang abgeduscht. Die Reihenfolge der Tiere bei der Applikation wechselte dabei täglich, um Differenzen in der Einwirkungszeit zwischen dem ersten und letzten Tier der Gruppe auf ein Minimum zu begrenzen. Diese Behandlung geschah an vier aufeinanderfolgenden Tagen, darauf folgte eine Ruhezeit (Entwicklungszeit von drei Tagen). Am siebenten Tag wurde ausgewertet, und zwar a) kutimetrisch auf Hautfaltendicke instrumentell mit dem Cutimeter nach Götze und b) visuell auf Schuppenbildung bzw. Hemmung nach einer 4-Punkte-Skala folgender Definition: • 0 = keine Schuppen • 1 = leichte Schuppen • 2 = kräftige Schuppen • 3= starke Schuppen mit Rötung • 4 = Krusten mit Aufrichten der Haare.
Die Versuchsgruppe bestand aus 6 Tieren. Das Kollektiv wurde mathematisch auf Homogenität geprüft und nach Eliminierung signifikant abweichender Tiere wurden Mittelwert und Streuung berechnet. […]

SMILES: COc1ccc(Cc2nccc3cc(OC)c(OC)cc23)cc1OC [Papaverin, 1-(3',4'-dimethoxybenzyl)-6,7-dimethoxy-isochinolin]
- Hautdickenmessung Hemmung % (evaluated on day 7 with the Cutimeter nach Götze): 17%
- Hautschuppenmessung Hemmung % (evaluated visually on day 7 on a 0-4 scale): 100%
